Experimental data taken from patent US10092584B2 (Achillion Pharmaceuticals, Inc., priority 2015, dated 2018).
Where a name gives a salt, the structure may show the parent alone. Read-outs that look alike come from different tables or passages of the source.

Biological target: T1, Human Factor D (Homo sapiens, UniProt P00746)
T1 construct: purified from human serum; purchased Complement Technology, Inc; host or cells: human serum
Experiment: Human Factor D assay (Example 8)
Format: biochemical
Conditions: Human Factor D 80 nM, substrate Z-L-Lys-SBzl
Outline: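 Thioester cleavage assay: human Factor D (serum-derived, 80 nM final), substrate Z-L-Lys-SBzl with DTNB, both 100 μM final, after 5 min compound preincubation at room temperature.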

[1] = Table 3, read-out: IC50 (Stars)

T1 sequence (P00746 26-253): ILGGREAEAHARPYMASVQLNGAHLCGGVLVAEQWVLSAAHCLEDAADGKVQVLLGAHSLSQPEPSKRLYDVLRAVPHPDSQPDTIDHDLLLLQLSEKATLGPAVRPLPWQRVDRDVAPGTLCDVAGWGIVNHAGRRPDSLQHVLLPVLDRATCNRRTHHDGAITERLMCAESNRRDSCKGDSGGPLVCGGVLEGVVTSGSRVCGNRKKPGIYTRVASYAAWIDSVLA

| IC50 (Table 2, read-out: IC50) [nM] | IC50 [1] [nM] | SMILES |
| --- | --- | --- |
| < 1000 | – | COC(=O)c1cc2c(s1)c(C(N)=O)nn2CC(=O)N1C[C@H](F)C[C@H]1C(=O)Nc1cccc(-c2ccccc2Cl)c1F [Compound 129, methyl 3-carbamoyl-1-(2-((2S,4R)-2-(2′-chloro-2-fluorobiphenyl-3-ylcarbamoyl)-4-fluoropyrrolidin-1-yl)-2-oxoethyl)-1H-thieno[3,2-c]pyrazole-5-carboxylate] |
| < 1000 | – | NC(=O)c1nn(CC(=O)N2C[C@H](F)C[C@H]2C(=O)Nc2cccc(-c3cc(F)c(F)cc3Cl)c2F)c2ccc(Br)cc12 [Compound 130, 5-bromo-1-(2-((2S,4R)-2-(2′-chloro-2,4′,5′-trifluorobiphenyl-3-ylcarbamoyl)-4-fluoropyrrolidin-1-yl)-2-oxoethyl)-1H-indazole-3-carboxamide] |
| < 1000 | – | CC(=O)c1nn(CC(=O)N2C[C@H](F)C[C@H]2C(=O)Nc2cccc(-c3ccccc3Cl)c2F)c2cc(C)sc12 [Compound 131, (2S,4R)-1-(2-(3-acetyl-5-methyl-1H-thieno[3,2-c]pyrazol-1-yl)acetyl)-N-(2′-chloro-2-fluorobiphenyl-3-yl)-4-fluoropyrrolidine-2-carboxamide] |
| < 1000 | – | NC(=O)c1nn(CC(=O)N2C[C@H](F)C[C@H]2C(=O)Nc2cccc(-c3ccccc3Cl)c2F)c2cc(C(=O)O)sc12 [Compound 132, 3-carbamoyl-1-(2-((2S,4R)-2-(2′-chloro-2-fluorobiphenyl-3-ylcarbamoyl)-4-fluoropyrrolidin-1-yl)-2-oxoethyl)-1H-thieno[3,2-c]pyrazole-5-carboxylic acid] |
| < 1000 | – | NC(=O)c1nn(CC(=O)N2CC(=O)C[C@H]2C(=O)Nc2cccc(-c3ccccc3Cl)c2F)c2ccccc12 [Compound 134, (S)-1-(2-(2-(2′-chloro-2-fluorobiphenyl-3-ylcarbamoyl)-4-oxopyrrolidin-1-yl)-2-oxoethyl)-1H-indazole-3-carboxamide] |
| < 1000 | – | NC(=O)c1nn(CC(=O)N2C[C@H](F)C[C@H]2C(=O)Nc2nc3cccc(Cl)c3[nH]2)c2ccccc12 [Compound 136, 1-(2-((2S,4R)-2-(7-chloro-1H-benzo[d]imidazol-2-ylcarbamoyl)-4-fluoropyrrolidin-1-yl)-2-oxoethyl)-1H-indazole-3-carboxamide] |
| < 1000 | – | NC(=O)c1nn(CC(=O)N2C[C@H](F)C[C@H]2C(=O)Nc2cccc(-c3ccccc3Cl)c2F)c2c(Cl)c(Cl)sc12 [Compound 137, 5,6-Dichloro-1-(2-((2S,4R)-2-((2′-chloro-2-fluoro-[1,1′-biphenyl]-3-yl)carbamoyl)-4-fluoropyrrolidin-1-yl)-2-oxoethyl)-1H-thieno[3,2-c]pyrazole-3-carboxamide] |
| < 1000 | – | NC(=O)c1nn(CC(=O)N2C[C@H](F)C[C@H]2C(=O)Nc2cccc(-c3ccccc3Cl)c2F)c2cc(Cl)sc12 [Compound 139, 5-Chloro-1-(2-((2S,4R)-2-((2′-chloro-2-fluoro-[1,1′-biphenyl]-3-yl)carbamoyl)-4-fluoropyrrolidin-1-yl)-2-oxoethyl)-1H-thieno[3,2-c]pyrazole-3-carboxamide] |
| < 1000 | – | NCC(=O)c1ccc(Cl)c(-c2cccc(NC(=O)[C@@H]3C[C@@H](F)CN3C(=O)Cn3nc(C(N)=O)c4ccccc43)c2F)c1 [Compound 140, 1-(2-((2S,4R)-2-((2′-Chloro-2-fluoro-5′-glycyl-[1,1′-biphenyl]-3-yl)carbamoyl)-4-fluoropyrrolidin-1-yl)-2-oxoethyl)-1H-indazole-3-carboxamide hydrochloride] |
| < 1000 | – | NC(=O)c1nn(CC(=O)N2C[C@H](F)C[C@H]2C(=O)Nc2cccc(-c3cc(C(=O)CO)ccc3Cl)c2F)c2ccccc12 [Compound 141, 1-(2-((2S,4R)-2-(2′-chloro-2-fluoro-5′-(2-hydroxyacetyl)bi-phenyl-3-ylcarbamoyl)-4-fluoropyrrolidin-1-yl)-2-oxoethyl)-1H-indazole-3-carboxamide] |
| – | < 1000 | NC(=O)c1nn(CC(=O)N2C[C@H](F)[C@@H](O)[C@H]2C(=O)Nc2cccc(-c3ccccc3Cl)c2F)c2ccccc12 [Compound 279, 1-(2-((2S,3S,4S)-2-(2′-Chloro-2-fluorobiphenyl-3-ylcarbamoyl)-4-fluoro-3-hydroxypyrrolidin-1-yl)-2-oxoethyl)-1H-indazole-3-carboxamide] |
| – | < 1000 | NC(=O)c1ccc(Cl)c(-c2cccc(NC(=O)[C@@H]3C[C@@H](F)CN3C(=O)Cn3nc(C(N)=O)c4ccccc43)c2F)c1 [Compound 315, 1-(2-((2S,4R)-2-((5′-carbamoyl-2′-chloro-2-fluoro-[1,1′-biphenyl]-3-yl)carbamoyl)-4-fluoropyrrolidin-1-yl)-2-oxoethyl)-1H-indazole-3-carboxamide] |
| – | < 1000 | NC(=O)c1nn(CC(=O)N2C[C@H](F)C[C@H]2C(=O)Nc2cccc(-c3cc(F)c(F)cc3Cl)c2F)c2ccc(Br)cc12 [Compound 319, 5-bromo-1-(2-((2S,4R)-2-((2′-chloro-2,4′,5′-trifluoro-[1,1′-biphenyl]-3-yl)carbamoyl)-4-fluoropyrrolidin-1-yl)-2-oxoethyl)-1H-indazole-3-carboxamide] |
| – | < 1000 | CC(=O)c1nn(CC(=O)N2C[C@H](F)C[C@H]2C(=O)Nc2cccc(-c3ccccc3Cl)c2F)c2cc(C)sc12 [Compound 323, (2S,4R)-1-(2-(3-Acetyl-5-methyl-1H-thieno[3,2-c]pyrazol-1-yl)acetyl)-N-(2′-chloro-2-fluoro-[1,1′-biphenyl]-3-yl)-4-fluoropyrrolidine-2-carboxamide] |
| – | < 1000 | NC(=O)c1nn(CC(=O)N2C[C@H](F)C[C@H]2C(=O)Nc2cccc(-c3ccccc3Cl)c2F)c2cc(C(=O)O)sc12 [Compound 326, 3-carbamoyl-1-(2-((2S,4R)-2-((2′-chloro-2-fluoro-[1,1′-biphenyl]-3-yl)carbamoyl)-4-fluoropyrrolidin-1-yl)-2-oxoethyl)-1H-thieno[3,2-c]pyrazole-5-carboxylic acid] |

More lines, now with the values behind:

| SMILES | IC50 (Table 2, read-out: IC50) [nM] | IC50 [1] [nM] |
| --- | --- | --- |
| O=C(NCc1cccc(Cl)c1F)[C@@H]1C[C@@H](F)CN1C(=O)Cn1cc(-c2cnco2)c2ccccc21 [Compound 133, (2S,4R)-N-(3-chloro-2-fluorobenzyl)-4-fluoro-1-(2-(3-(oxazol-5-yl)-1H-indol-1-yl)acetyl) pyrrolidine-2-carboxamide] | < 1000 | – |
| NC(=O)c1nn(CC(=O)N2C(=O)CC[C@H]2C(=O)Nc2cccc(-c3ccccc3Cl)c2F)c2ccccc12 [Compound 135, (S)-1-(2-(2-((2′-Chloro-2-fluoro-[1,1′-biphenyl]-3-yl)carbamoyl)-5-oxopyrrolidin-1-yl)-2-oxoethyl)-1H-indazole-3-carboxamide] | < 1000 | – |
| CC(=O)c1nn(CC(=O)N2C[C@H](F)C[C@H]2C(=O)Nc2cccc(-c3ccccc3Cl)c2F)c2cc(C(=O)O)sc12 [Compound 138] | < 1000 | – |
| O=C(Nc1cccc(-c2ccccc2Cl)c1F)[C@@H]1C[C@@H](F)CN1C(=O)Cn1c(=O)[nH]c2ccccc21 [Compound 142, (2S,4R)-N-(2′-chloro-2-fluorobiphenyl-3-yl)-4-fluoro-1-(2-(2-oxo-2,3-dihydro-1H-benzo[d]imidazol-1-yl)acetyl) pyrrolidine-2-carboxamide] | < 1000 | – |
| NC(=O)c1nn(CC(=O)N2C(=O)CC[C@H]2C(=O)Nc2cccc(-c3ccccc3Cl)c2F)c2ccccc12 [Compound 260, (S)-1-(2-(2-(2′-Chloro-2-fluorobiphenyl-3-ylcarbamoyl)-5-oxopyrrolidin-1-yl)-2-oxoethyl)-1H-indazole-3-carboxamide] | – | < 1000 |
| CC(=O)c1nn(CC(=O)N2C[Si](C)(C)C[C@H]2C(=O)NCc2cccc(Cl)c2F)c2ccccc12 [Compound 268, (R)-1-(2-(3-acetyl-1H-indazol-1-yl)acetyl)-N-(3-chloro-2-fluorobenzyl)-3,3-dimethyl-1,3-azasilolidine-5-carboxamide] | – | 1000 to 10000 |
| CC(=O)c1nn(CC(=O)N2C[Si](C)(C)C[C@H]2C(=O)Nc2cccc(Br)n2)c2ccccc12 [Compound 271, (R)-1-(2-(3-acetyl-1H-indazol-1-yl)acetyl)-N-(6-bromopyridin-2-yl)-3,3-dimethyl-1,3-azasilolidine-5-carboxamide] | – | 1000 to 10000 |
| CO[C@H]1[C@@H](C(=O)Nc2cccc(-c3ccccc3Cl)c2F)N(C(=O)Cn2nc(C(N)=O)c3ccccc32)C[C@@H]1F [Compound 289, 1-(2-((2S,3S,4S)-2-(2′-Chloro-2-fluorobiphenyl-3-ylcarbamoyl)-4-fluoro-3-methoxypyrrolidin-1-yl)-2-oxoethyl)-1H-indazole-3-carboxamide] | – | < 1000 |
| CC(=O)c1cc(CC(=O)N2C[C@H](F)C[C@H]2C(=O)Nc2cccc(-c3ccccc3Cl)c2F)n2ccccc12 [Compound 312, (2S,4R)-1-(2-(1-Acetylindolizin-3-yl)acetyl)-N-(2′-chloro-2-fluorobiphenyl-3-yl)-4-fluoropyrrolidine-2-carboxamide] | – | < 1000 |
| CC(=O)c1cc(CC(=O)N2C[C@H](F)C[C@H]2C(=O)Nc2cccc(Br)n2)n2ccccc12 [Compound 314, (2S,4R)-1-(2-(1-Acetylindolizin-3-yl)acetyl)-N-(6-bromopyridin-2-yl)-4-fluoropyrrolidine-2-carboxamide] | – | < 1000 |
| CC(=O)c1cn(CC(=O)N2C[C@H](F)C[C@H]2C(=O)Nc2cccc(-c3ccccc3Cl)c2F)c2cc(F)ccc12 [Compound 325, (2S,4R)-1-(2-(3-acetyl-6-fluoro-1H-indol-1-yl)acetyl)-N-(2′-chloro-2-fluoro-[1,1′-biphenyl]-3-yl)-4-fluoropyrrolidine-2-carboxamide] | – | < 1000 |
| CC(=O)c1cn(CC(=O)N2C[C@H](F)C[C@H]2C(=O)Nc2cccc(-c3ccccc3Cl)c2F)c2cc(Cl)ccc12 [Compound 328, (2S,4R)-1-(2-(3-acetyl-6-chloro-1H-indol-1-yl)acetyl)-N-(2′-chloro-2-fluoro-[1,1′-biphenyl]-3-yl)-4-fluoropyrrolidine-2-carboxamide] | – | < 1000 |
